Experimental data as given in US11884667B1, “Substituted pyrrolo[2,3-c][2,7]naphthyridines as CK2 inhibitors” (KING FAISAL UNIVERSITY, priority 2023, dated 2024).

Tests used:
[1] = tested on: PC3 (prostate); assay: In vitro cytotoxic activity (MTT) assay, PC3; format: cell-based; conditions: Homo sapiens, 96 hours exposure, read-out: IC50, 50% inhibition of cell proliferation
Experimental: (§1) Compounds 1-15 were screened for their in vitro cytotoxic activity utilizing a 3-(4,5-dimethyl-thiazol-2-yl)-2,5-diphenyltetrazolium bromide (MTT) assay against selected cancer human cell lines consisting of PC3 (prostate), HCT116 (colon), A375 (melanoma), H1299 (lung), MIAPaCa-2 (pancreas), HL60 (leukemia), MCF7 (breast), MDA-MB-231 (breast) (T. Mosmann, J. Immunol. Meth., 1983, 65, 55-63). The cells were cultured at 37° C. in RMPI1640 medium supplemented with 10% fetal bovine serum, 50 IU/mL penicillin, and 50 μg/mL streptomycin in a 5% CO2 incubator. All cells were sub-cultured 3 times/week by trypsinization. Viable cells were seeded and allowed to adhere for 12 h before a test drug was added in 96-well plates at an initial density of 1.0×10^5 cells/mL. Tumour cell lines were separately exposed to various concentrations of the tested compounds followed by incubation at a temperature of 37° C. during 96 h inside a medium of fresh RMPI 1640. Cells were subsequently incubated at 37° C. using MTT at 0.5 mg/mL during 4 h. After removal of supernatant, formazan crystals were dissolved in isopropanol and the optical density was measured at 570 nm. CX-4945 was used as a positive control.

[2] = tested on: HL60 (leukemia); assay: In vitro cytotoxic activity (MTT) assay, HL60; format: cell-based; conditions: Homo sapiens, HL-60, 96 hours exposure, read-out: IC50, 50% inhibition of cell proliferation
Experimental: as §1

[3] = tested on: A375 (melanoma); assay: In vitro cytotoxic activity (MTT) assay, A375; format: cell-based; conditions: Homo sapiens, A-375, 96 hours exposure, read-out: IC50, 50% inhibition of cell proliferation
Experimental: as §1

[4] = tested on: HCT116 (colon); assay: In vitro cytotoxic activity (MTT) assay, HCT116; format: cell-based; conditions: Homo sapiens, HCT-116, 96 hours exposure, read-out: IC50, 50% inhibition of cell proliferation
Experimental: as §1

[5] = tested on: MIAPaCa-2 (pancreas); assay: In vitro cytotoxic activity (MTT) assay, MIAPaCa-2; format: cell-based; conditions: Homo sapiens, MIA PaCa-2, 96 hours exposure, read-out: IC50, 50% inhibition of cell proliferation
Experimental: as §1

[6] = tested on: MCF7 (breast); assay: In vitro cytotoxic activity (MTT) assay, MCF7; format: cell-based; conditions: Homo sapiens, 96 hours exposure, read-out: IC50, 50% inhibition of cell proliferation
Experimental: as §1

[7] = molecular target: T1, recombinant human CK2 (RRββ-holoenzyme) (Homo sapiens, UniProt P68400); assay: CK2 kinase assay ([γ-33P]ATP, filter plate); format: biochemical; conditions: final ATP 15 μM, 10 min at 30° C.; read-out: protein kinase CK2 IC50
T1 construct: purchased Millipore
Experimental: CK2 Kinase Assay was conducted using the protocol as described in Pierre F. et al; J. Med. Chem. 2011, 54, 635-654. The tested compounds in aqueous solution were added at a volume of 10 μL to a reaction mixture comprising 10 μL of assay dilution buffer (ADB; 20 mM MOPS, pH 7.2, 25 mM β-glycerol phosphate, 5 mM EGTA, 1 mM sodium orthovanadate, and 1 mM dithiothreitol), 10 μL of substrate peptide (RRRDDDSDDD, dissolved in ADB at a concentration of 1 mM), 10 μL of recombinant human CK2 (RRββ-holoenzyme, 25 ng dissolved in ADB; Millipore). Reactions were initiated by the addition of 10 μL of ATP solution (90% 75 mMMgCl2, 75 μM ATP (final ATP concentration:15 μM) dissolved in ADB; 10% [γ-33P] ATP (stock 1mCi/100 μL; 3000 Ci/mmol (Perkin-Elmer) and maintained for 10 min at 30° C. The reactions were quenched with 100 μL of 0.75% phosphoric acid and then transferred to and filtered through a phosphor cellulose filter plate (Millipore). After washing each well five times with 0.75% phosphoric acid, the plate was dried under vacuum for 5 min and, following the addition of 15 μL of scintillation fluid to each well, the residual radioactivity was measured using a Wallac […]. The IC50 values were derived from eight concentrations of test inhibitors.

[8] = tested on: MDA-MB-231 (breast); assay: In vitro cytotoxic activity (MTT) assay, MDA-MB-231; format: cell-based; conditions: Homo sapiens, 96 hours exposure, read-out: IC50, 50% inhibition of cell proliferation
Experimental: as §1

[9] = tested on: H1299 (lung); assay: In vitro cytotoxic activity (MTT) assay, H1299; format: cell-based; conditions: Homo sapiens, NCI-H1299, 96 hours exposure, read-out: IC50, 50% inhibition of cell proliferation
Experimental: as §1

T1 sequence (P68400 whole entry): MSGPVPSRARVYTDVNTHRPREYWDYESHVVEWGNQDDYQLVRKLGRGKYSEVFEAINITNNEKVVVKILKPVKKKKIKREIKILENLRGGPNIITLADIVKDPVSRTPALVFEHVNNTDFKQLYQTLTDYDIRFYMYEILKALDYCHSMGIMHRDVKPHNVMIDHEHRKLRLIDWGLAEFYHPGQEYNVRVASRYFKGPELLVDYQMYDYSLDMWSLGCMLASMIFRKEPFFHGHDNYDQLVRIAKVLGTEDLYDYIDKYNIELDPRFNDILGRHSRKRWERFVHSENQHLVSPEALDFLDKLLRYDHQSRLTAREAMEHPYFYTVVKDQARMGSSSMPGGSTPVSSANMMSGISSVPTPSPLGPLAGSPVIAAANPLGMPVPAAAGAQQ
T1 sequence (P67870 whole entry partner): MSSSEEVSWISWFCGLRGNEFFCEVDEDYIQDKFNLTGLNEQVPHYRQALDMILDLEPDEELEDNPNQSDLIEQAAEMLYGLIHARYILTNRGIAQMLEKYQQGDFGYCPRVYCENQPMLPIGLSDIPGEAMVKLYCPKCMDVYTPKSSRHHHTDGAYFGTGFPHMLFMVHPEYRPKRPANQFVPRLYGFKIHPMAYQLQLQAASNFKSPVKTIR

Q: With O=C(O)c1cc2c(nc(Nc3cccc(Cl)c3)c3cnccc32)[nH]1 [Compound 1, 5-((3-chlorophenyl)amino)-3H-pyrrolo[2,3-c][2,7]naphthyridine-2-carboxylic acid] as the compound, how does the IC50 [1] read?
A: The IC50 was 2600 nM.

Q: And the IC50 [2]?
A: The IC50 was 2400 nM.

Q: What about the IC50 [3] of the same compound?
A: The IC50 was 2700 nM.

Q: And the IC50 [4]?
A: The IC50 was 900 nM.

Q: And the IC50 [5]?
A: Its IC50 is 800 nM.

Q: And the IC50 [6]?
A: Its IC50 is 3300 nM.

Q: What about the IC50 [7] of the same compound?
A: The IC50 was 16 nM.

Q: What about the IC50 [8] of the same compound?
A: The IC50 was 4100 nM.

Q: And the IC50 [9]?
A: Its IC50 is 1100 nM.
